Several values for one entry are separate records, joined by “and”; a condition that tells them apart may be missing. Equal entries are not always repeated.
Key:
[1] = test system: powdery mildew; assay: powdery mildew on roses, disease rating / MPDC after foliar spray; type: in vivo, Sphaerotheca pannosa; conditions: for Mean % Disease Control, rose powdery mildew: no aldehyde: additive alone (T80 10 g, NaHCO3 80 g) or Benomyl per manufacturer instructions, four days
Description: Each formulation is evaluated for its effect on specific pests and/or plant host using any of the compounds of formula (1) as well as other components of the formulation such as Tween 80 and/or sodium bicarbonate, with the combination and effective amount of each component adapted for a particular application to minimize toxicity while maintaining or increasing the antipathogenic effect of the formulation. The effective amount of each component may be determined by systematically varying the amount of that component in a test formulation, treating a plant of interest with the test formulation, and monitoring the level of pest infestation compared to an untreated control plant. An effective amount of a test component is identified as the amount that controls the growth of the pathogen on the plant host, thus reducing the disease rating of the plant. The mean percentage disease […] (MPDC) can be calculated for each particular application. MPDC is defined by the formula: [formula] Eight cultivars of rose were tested to investigate the effect of a cinnamic aldehyde/NaHCO3 formulation on rust and spores. The cultivars used included Moss unnamed (Moss), […], Rosette Delize (Hybrid Tea), Rosa Rugosa Rubra (Rugosa), Abel Morrison (Hybrid perpetual), John Laing, Betty Prior, and Rose de Roi. […] The Hybrid Tea and Hybrid perpetual were rated 3 and the Rugosa was rated 1. […] Control plants received no treatment. […] Moreover, the treatment appeared to have induced systemic resistance. […] Plants were an average of 0.86 m apart. […] Controls were untreated plants. […] Weekly reviews were made of the various plants. […] of infected rose in dedicated experimental rose gardens were used. Four Mrs. John Laing (Hybrid perpetual) and two Marchionese of Londonderry (Hybrid perpetual) rose plants were treated with one of two formulations of coniferyl aldehyde. […] The first two Mrs. […] Mrs. […] Both Marchionese of Londonderry plants (P5 and P6) were rated 5 for powdery mildew and rust after Paulus and Nelson (supra). Two treatment formulae were used for this trial. […] Control plants were sprayed with water alone. The change in the rating from pre-treatment to post-treatment was calculated as the mean percentage of disease control (MPDC) as described herein. A three treatment experiment with cinnamic aldehyde formula, coniferyl aldehyde formula and combined cinnamic and coniferyl aldehyde formula was carried out on field grown roses known to be susceptible to powdery mildew. The plants were blocked by variety before fungicide treatments and were randomized as to the plants. Two varieties were used in each of the three experiments described below. […] In experiment 3 Comte de Chambord (Portland) and Madame Pierre Oger (Bourbon) were used. In Experiment 1, the effect of cinnamic aldehyde alone and in combination with Tween 80 and/or NaHCO3 component was evaluated in experiment 2 the effect of coniferyl aldehyde alone and in combination with Tween 80 and/or NaHCO3 was evaluated and in experiment 3 a combination of cinnamic aldehyde and coniferyl aldehyde with Tween 80 and/or NaHCo3 was evaluated. […] See Table 3 for the treatment protocol; formula 1 was used for these experiments. […] Plants were evaluated using the Paulus/Nelson scale just prior to and four days after treatment. […] Moreover, cinnamic aldehyde, coniferyl aldehyde, Tween 80 and NaHCO3 are used in the food industry and there is likely to be little toxicological risk to the consumer or handler from any horticultural or food crop sprayed in this way. Similarly, as these chemicals leave no toxic residue, there is little chance of any detrimental effect on the wider environment, and their use is likely to be compatible with current biological control methods such as beneficial insects and/or microorganisms.

[2] = test system: silverleaf white fly, Bemisia argentifolii; assay: silver leaf white fly Petri dish bioassay; conditions: for Silver Leaf White Fly Mortality (Percent): no aldehyde: T80 (10 g), NaHCO3, T80(2%) + NaHCO3 (6%) or Malathion (250 ppm) alone
Description: (§1) Activity of cinnamic aldehyde and/or coniferyl aldehyde against black bean aphid, Tetranychus urticae, and silverleaf white fly, Bemisia argentifolii was determined as follows:
Petri dishes (60 mm) were treated with cinnamic aldehyde at 10-25,000 ppm in 2% Tween 80 and 6% NaHCO3 dissolved in water, and allowed to air dry. Twenty adult silver leaf white fly were put in each dish, (replicate 10 times). The mortality after three hours in contact with a treated plate, was compared to that of silver leaf white fly in petri dishes treated only with diluent. Malathion at 250 ppm was used as a positive control.

[3] = test system: grape phylloxera eggs; assay: whole plant or invertebrate; conditions: for approximate egg hatch LD 50: egg tests with CNMA analogs; for nymphs that died in the shell (DIS): controls: Carbofuran 10 ppm, malathion 250 ppm, 7 days
Description: Mixed age groups of 60 grape phylloxera eggs were established on filter paper (Whatman #1, 5.5 cm circles) in 50×9 mm sealed plastic petri dishes treated with 100 μl of solution. A selected concentration of a test formulation of 400 μl was added to the filter disk and the dish closed with the petri dish cover and placed in a plastic container box. After 6 hours, the box was placed in an environmental chamber at 24° C. in the dark. The eggs were placed in groups of 10. After one week, the percentage of hatch is determined. In an initial test, doses from 0.1 to 25,000 ppm cinnamic aldehyde in 6% NaHCO3 and 2% Tween 80 were evaluated with a single group of eggs at each dosage. Three replicates of the experiment were performed. […] LD50 and LD95 were determined by probit analysis.
Grape phylloxera eggs were treated with cinnamaldehyde (CNMA) in a 6% NaHCO3, 2% Tween-80 formulation in a laboratory bioassay. Mortality of the eggs was indicated by failure of the egg shell to split. […] Leaves of one-year-old greenhouse Vitis vinifera cultivar Merlot vines heavily infested with grape phylloxera were sprayed to run-off with a CNMA treatment using the same formulation. […] Roots taken from plants 1, 2 and 5 weeks after CNMA or other treatments were placed in Petri dish bioassays and infested with untreated phylloxera eggs.
Eggs of various age classes were placed on Whatman #1 filter paper moistened with enough treatment solution to form a meniscus about halfway up the sides of the eggs. The pieces of filter paper with eggs were maintained in sealed plastic Petri dishes at […] until they were 7 days old and then hatched individuals were counted. Hatch was considered successful if the […]

[4] = test system: Fusarium subglutinans f. sp. pini; assay: radial growth on amended potato dextrose agar; type: cell-based; conditions: controls: Saponin alone, 5 ppm Benomyl, Glutaraldehyde 2%; five days at 18° C
Description: A double-blind bioassay was undertaken using cinnamic aldehyde in various concentrations and formulations. The bioassay was based on inhibition of radial growth of Fusarium subglutinans f. sp. pini. Eight ml of formulation (concentration unknown) was pipetted into 200 ml of molten 2% potato dextrose agar (PDA) and the mixture was dispersed into five plastic petri dishes (25 ml dish). Each of four plates was inoculated at the center with an agar plug transferred from a growing PDA culture of Fusarium subglutinans f. sp. pini (isolate SL-1, UCB), while the fifth plate was left noninoculated as a control. These steps were repeated for each formulation of the cinnamic aldehyde. As a positive control, four PDA plates amended with 5 ppm benomyl were inoculated. as described; the negative control was four unamended PDA plates that were inoculated with F. subglutinans. All inoculated and non-inoculated plates were incubated at 18° C. for five days, after which colony diameters were measured.

[5] = test system: root-knot nematode, Meloidogyne javanica; type: in vivo; conditions: controls: saponin alone (1:60 dilution of 10 brix concentrate; compared with 100% mortality), Ethanol (95%)
Description: In a double blind study, concentrations of the subject aldehyde compounds were tested for activity against root-knot nematode, Meloidogyne javanica. Nematodes were put in direct contact with the chemical and at 24 hour intervals, mortality was assessed both visually and by probing. Meloidogyne javanica were produced using hydroponics. The nematodes were harvested and used within 24 hours.
Approximately 100 nematodes in 0.07 mls of water were pipetted into a syracuse dish (Fisher) and 1 ml of test formulation was immediately pipetted into each dish. The dishes were then placed into plastic bags to retain moisture and prevent evaporation. Four syracuse dishes were used for each solution test formulation. […] Moving nematodes were counted as living.

[6] = test system: grape phylloxera; assay: grape phylloxera adult and nymphal mortality, root dip; type: in vivo, Daktulosphaira vitifoliae; conditions: Daktulosphaira vitifoliae, 120 h; positive control 250 ppm malathion in water; root dip; 5 days; read-out: mortality of adults and nymphs
Description: Approximately twenty four eggs of phylloxera were allowed to develop for up to 30 days on standard excised grape roots. At around 30 days, some of the insects were nymphs while others were adults. New eggs were removed during the process. Insect infected roots were submerged into a test formula for 6 seconds then set aside to dry in the air. The percentage of live insects, as defined by growth, oviposition or limb movement, was determined after 5 days. An insect was considered dead if it abandoned its feed site.
In an initial test, doses of 20,000 ppm cinnamic aldehyde in water (i.e., 2% cinnamic aldehyde) with various additives were evaluated. Cinnamic aldehyde without any additives produced 83.3% mortality. With-1% Tween 80 added, 91.7% mortality was seen. With 6% NaHCO3 added to a solution of 2% cinnamic aldehyde, 91.7% mortality was seen. With 1% Tween 80 and 6% NaHCO3 added to a solution of 2% cinnamic aldehyde, 100% mortality was seen. Water with no additives produced no mortality, while a positive control solution of 250 ppm malathion in water gave 100% mortality.
For nymph and adult tests, eggs were placed on excised root pieces similar to those used for rearing purposes and these were sealed in Petri dishes and held at 24° C. for 18-25 days to allow insects to hatch, initiate feeding sites and develop. At about this time about half the population was in the adult stage. Prior to testing, the population on each root was determined as well as the developmental stage of each insect. Eggs were removed. These root pieces were then dipped for 5 sec into test solutions and allowed to air dry before they were returned to Petri dishes, sealed and placed back in the temperature chamber at 24° C. Mortality was determined after 5 days. Insects were considered dead if they appeared black or desiccated and if they had not developed since the pre-treatment reading and had laid no or few new eggs.

[7] = test system: phylloxera-biotype A; assay: greenhouse Merlot vines infested with phylloxera, leaf spray, disease rating of roots; type: in vivo, Daktulosphaira vitifoliae; conditions: Experiment 2, 200 ppm Malathion leaf treatment
Source text: For greenhouse tests, one year old potted V. vinifera cultivar merlot plants were used that had been obtained from Foundation Plant Material Service, University of California, Davis. The plants were potted in 10 cm diameter pots and were infested with phylloxera 5 weeks prior to treatment. At the time of spraying with a treatment solution, plant pots were placed in a plastic bag so that chemical runoff from the leaf sprays would not drip into the soil. The plants were sprayed to runoff with a household 1 liter-capacity plastic spray bottle. Plants were allowed to air dry outside and then replaced in the greenhouse. At intervals thereafter, the roots were separated from the potting mix and total phylloxera population estimated.

[8] = test system: black bean aphid, Tetranychus urticae; assay: aphid Petri dish bioassay; conditions: malathion 250 ppm, positive control; three hours contact
Description: as §1
Petri dishes (60 mm) were treated with cinnamic aldehyde at 10-25,000 ppm in 2% Tween 80 and 6% NaHCO3 dissolved in water, and the dishes allowed to air dry. Twenty adult aphids (Tetranychus urticae) were put in each dish, (replicate 10 times). The mortality after three hours in contact with a treated plate was compared to that of aphids in petri dishes treated only with diluent. Malathion (250 ppm) was used as a positive control.

O=C([O-])O.[Na+] [NaHCO3]
Mean % Disease Control, rose powdery mildew [1]: 44%
Silver Leaf White Fly Mortality (Percent) [2]: 22.9%

OCC=Cc1ccccc1 [Cinnamyl alcohol]
approximate egg hatch LD 50 [3]: > 320 ppm and < 560 ppm

COC(=O)C=Cc1ccccc1 [Cinnamyl acid methyl ester]
approximate egg hatch LD 50 [3]: > 320 ppm and < 560 ppm

CCCCCCCC/C=C\CCCCCCCC(=O)OCCOCC(OCCO)C1OCC(OCCO)C1OCCO (stereo not shown) [T80, Tween 80]
Mean % Disease Control, rose powdery mildew [1]: 0%
Silver Leaf White Fly Mortality (Percent) [2]: 14.5%

O=CCCCC=O [Glutaraldehyde, reference compound]
Colony diameter (cm) [4]: 3.663 cm and 3.66 cm

CCO [Ethanol, reference compound]
mortality at 24 hours [5]: killed all nematodes

CCCCNC(=O)n1c(NC(=O)OC)nc2ccccc21 [Benomyl, reference compound]
Mean % Disease Control, rose powdery mildew [1]: 79%
Mean disease control ([1]; sprayed roses, parallel experiments): approximately 80%
Colony diameter (cm) [4]: 0.000 cm and 0 cm

CCOC(=O)CC(SP(=S)(OC)OC)C(=O)OCC (stereo not shown) [malathion, reference compound]
mortality at 250 ppm [6]: 100%
nymphs that died in the shell (DIS) [3]: 100%
Average disease rating (0-4) ([7]; 1 day post treatment): 4 (3)
Average disease rating (0-4) ([7]; 2 days post treatment): 2.3(3)
Average disease rating (0-4) ([7]; 7 days post treatment): 0(2)
aphids killed [8]: 100%
silver leaf white fly killed ([2]; malathion 250 ppm, positive control, three hours contact): 100%

CNC(=O)Oc1cccc2c1OC(C)(C)C2 [Carbofuran, reference compound]
nymphs that died in the shell (DIS) [3]: 100%

— patent publication US20030005484A1, “Microbiocidal and pesticidal aromatic aldehydes” (ProGuard, Inc., priority 1994, published 2003)
